Results taken from US20260337225A1, “SMALL PEPTIDE AND USE THEREOF IN MUCOSAL REPAIR” (FORREST BIO-PHARM (SHENZHEN) CO., LTD., priority 2022, published 2026).

Test system: rat model of chronic gastric ulcer
Experiment: Rat model of chronic gastric ulcer (anhydrous ethanol followed by aspirin)
Format: in vivo
Settings: omeprazole 2.6 mg/kg twice daily for 3 days
Procedure: The function of the small peptides obtained in Embodiment 2 was validated in the present embodiment by using a rat model of chronic gastric ulcer.
Control group (model group): A rat model of chronic gastric ulcer model was constructed by intragastric administration of anhydrous ethanol (1 mL/200 g), followed by intragastric administration of 200 mg/kg aspirin 2 h later. The rats were administered with aspirin once daily for 4 days. At day 5, the rats were administered with an equal volume of saline.
Blank group: The rats were administered with an equal volume of saline.
Drug treatment groups: A rat model of chronic gastric ulcer was constructed as above-mentioned. At day 5, the rats were respectively administered with the rice polypeptide mixture (50 mg/kg), small peptide P1 (0.5 mg/kg), or small peptide P2 (0.5 mg/kg) twice daily for 3 days. On day 4, the rats were sacrificed and their gastric necropsy was performed.
Positive control group (omeprazole 2.6 mg/kg): A rat model of chronic gastric ulcer was constructed as above. At day 5, the rats were administered with omeprazole (2.6 mg/kg) twice daily for 3 days. On day 4, The rats were sacrificed and their gastric necropsy was performed.
Each group consisted of 10 rats. After 24 h of modeling, the rats were sacrificed to extract the gastric tissue, for measuring gastric pH, and observing changes in ulcer area via gastric tissue dissection. Liver and kidney tissues were collected for pathological section observation to assess drug safety.

COc1ccc2[nH]c([S+]([O-])Cc3ncc(C)c(OC)c3C)nc2c1 (centres unmarked) [omeprazole, reference compound] gave a Ulcer index (10 rats, ratio of ulcer area to gastric mucosal tissue area, Control group 40.5 ± 5.3) of 7.2 ± 4.1% and a Ulcer inhibition rate (percentage reduction in ulcer area compared to the Control group) of 82.2%.
